Experimental data taken from ChEMBL document CHEMBL1201862, “PubChem BioAssay data set” (2004).
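Compound exposure: 48 hours, 5 concentrations, 96-well plates. GI50 is the concentration that inhibits growth by half.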 Calls of active or inactive are those of the source. Rule as the data show it: active = GI50 up to about 1.1 µM and inactive = higher.

Legend:
Experiment in all cases: NCI-60 cell line screen, 48 h
NCI-H522 = system: NCI-H522
M14 = system: M14
MCF7 = system: MCF7
SN12C = system: SN12C
DU-145 = system: DU-145
KM12 = system: KM12
NCI/ADR-RES = system: NCI/ADR-RES
T47D = system: T47D
SK-MEL-28 = system: SK-MEL-28
U-251 = system: U-251
HOP-62 = system: HOP-62
OVCAR-4 = system: OVCAR-4
SNB-19 = system: SNB-19
MOLT-4 = system: MOLT-4
HOP-92 = system: HOP-92
COLO 205 = system: COLO 205
SF-295 = system: SF-295
RXF 393 = system: RXF 393

Measured: GI50

C=C1CC(Cn2cc(C)c(=O)[nH]c2=O)(c2ccc(Cl)cc2)OC1=O (stereo not drawn)
active: NCI-H522 0.594 µM | MCF7 0.933 µM | MOLT-4 0.94 µM | HOP-92 0.438 µM
inactive: M14 1.22 µM | SN12C 7.05 µM | DU-145 4.65 µM | KM12 13.6 µM | NCI/ADR-RES 3.98 µM | T47D 2.08 µM | SK-MEL-28 2.18 µM | U-251 16.2 µM | HOP-62 15.8 µM | OVCAR-4 1.72 µM | SNB-19 23.1 µM | COLO 205 1.42 µM | SF-295 9.64 µM

C[C@@H](C[C@@H](O)[C@H](O)C(C)(C)O)[C@H]1CC=C2[C@]3(C)[C@H](O)C[C@H]4C(C)(C)[C@H](O)CC[C@]4(C)[C@H]3CC[C@@]21C
inactive: NCI-H522 14 µM | M14 15.1 µM | MCF7 17.2 µM | SN12C 15.7 µM | DU-145 16.9 µM | KM12 15.7 µM | NCI/ADR-RES 13.8 µM | SK-MEL-28 14.4 µM | U-251 16.7 µM | HOP-62 15 µM | RXF 393 17 µM | OVCAR-4 14.4 µM | SNB-19 16 µM | MOLT-4 11.1 µM | HOP-92 13.9 µM | COLO 205 13.7 µM | SF-295 15 µM

CC(=O)CSc1c(-c2ccccc2)c(=O)n(-c2ccccc2)c(=S)n1-c1ccccc1
inactive: NCI-H522 > 100 µM | M14 > 100 µM | MCF7 > 100 µM | SN12C > 100 µM | DU-145 > 100 µM | KM12 > 100 µM | NCI/ADR-RES > 100 µM | T47D > 100 µM | SK-MEL-28 > 100 µM | U-251 > 100 µM | HOP-62 > 100 µM | OVCAR-4 > 100 µM | SNB-19 > 100 µM | MOLT-4 47.4 µM | HOP-92 > 100 µM | COLO 205 > 100 µM | SF-295 > 100 µM

C[C@@H]1[C@H](O)CC2=C(CC[C@@H](O)C2(C)C)[C@@]1(CO)CCc1ccoc1
inactive: M14 > 50 µM | MCF7 > 50 µM | SN12C > 50 µM | KM12 > 50 µM | NCI/ADR-RES > 50 µM | SK-MEL-28 > 50 µM | U-251 > 50 µM | HOP-62 > 50 µM | RXF 393 > 50 µM | OVCAR-4 > 50 µM | SNB-19 > 50 µM | MOLT-4 34.7 µM | HOP-92 > 50 µM | COLO 205 > 50 µM | SF-295 > 50 µM

CCOC(=O)C1=CC(C)(C(=O)OCC)Nc2c(nc(SC)n(C)c2=O)N1 (stereo not drawn)
inactive: NCI-H522 > 10 µM | M14 > 10 µM | MCF7 > 10 µM | SN12C > 10 µM | DU-145 > 10 µM | KM12 > 10 µM | NCI/ADR-RES > 10 µM | T47D > 10 µM | SK-MEL-28 > 10 µM | U-251 > 10 µM | HOP-62 > 10 µM | OVCAR-4 > 10 µM | SNB-19 > 10 µM | MOLT-4 > 10 µM | HOP-92 > 10 µM | COLO 205 > 10 µM | SF-295 > 10 µM

CC(C)(C)c1cc(C(C)(C)C)c(P=C(Cl)Cl)c(C(C)(C)C)c1 (stereo not drawn)
inactive: NCI-H522 > 100 µM | M14 > 100 µM | MCF7 > 100 µM | SN12C > 100 µM | DU-145 > 100 µM | KM12 > 100 µM | NCI/ADR-RES > 100 µM | T47D > 100 µM | SK-MEL-28 > 100 µM | U-251 > 100 µM | HOP-62 > 100 µM | OVCAR-4 > 100 µM | SNB-19 > 100 µM | MOLT-4 > 100 µM | HOP-92 > 100 µM | COLO 205 > 100 µM | SF-295 > 100 µM

C=CCCC(CCC=C)(C(=O)O)C(=O)O
inactive: NCI-H522 > 100 µM | M14 > 100 µM | MCF7 > 100 µM | SN12C > 100 µM | DU-145 > 100 µM | KM12 > 100 µM | NCI/ADR-RES > 100 µM | SK-MEL-28 > 100 µM | U-251 > 100 µM | HOP-62 > 100 µM | RXF 393 > 100 µM | SNB-19 > 100 µM | MOLT-4 > 100 µM | COLO 205 > 100 µM | SF-295 > 100 µM

Cc1cccc2c(=O)c3c(O)cc4c(c3n(C)c12)C=CC(C)(C)O4
inactive: NCI-H522 > 100 µM | M14 28.3 µM | MCF7 32.7 µM | SN12C > 100 µM | DU-145 > 100 µM | KM12 29 µM | NCI/ADR-RES 31.8 µM | SK-MEL-28 > 100 µM | U-251 > 100 µM | HOP-62 > 100 µM | RXF 393 5.93 µM | OVCAR-4 43.9 µM | SNB-19 > 100 µM | MOLT-4 29.1 µM | HOP-92 21.6 µM | COLO 205 29 µM | SF-295 25.1 µM

CCOC(=O)C(=Cc1ccccc1Br)C(=O)OCC
active: M14 0.424 µM | DU-145 0.508 µM | MOLT-4 0.32 µM
inactive: NCI-H522 1.64 µM | MCF7 1.55 µM | SN12C 2.84 µM | KM12 1.62 µM | NCI/ADR-RES 4.65 µM | SK-MEL-28 2.4 µM | U-251 1.66 µM | HOP-62 2.37 µM | RXF 393 2.1 µM | OVCAR-4 4.09 µM | SNB-19 2.53 µM | HOP-92 3.4 µM | COLO 205 2.8 µM | SF-295 3.26 µM

Nc1nc2c(ncn2Cc2ccccc2CO)c(=O)[nH]1
inactive: NCI-H522 > 100 µM | M14 > 100 µM | MCF7 > 100 µM | SN12C > 100 µM | DU-145 > 100 µM | KM12 > 100 µM | NCI/ADR-RES > 100 µM | T47D > 100 µM | SK-MEL-28 > 100 µM | U-251 > 100 µM | HOP-62 > 100 µM | OVCAR-4 > 100 µM | SNB-19 > 100 µM | MOLT-4 > 100 µM | HOP-92 > 100 µM | COLO 205 > 100 µM | SF-295 > 100 µM

CC(C)(C)C1=C(Br)C(C(C)(C)C)OP1(=O)O (stereo not drawn)
inactive: NCI-H522 > 100 µM | M14 > 100 µM | MCF7 > 100 µM | SN12C > 100 µM | DU-145 > 100 µM | KM12 > 100 µM | NCI/ADR-RES > 100 µM | T47D > 100 µM | SK-MEL-28 > 100 µM | U-251 > 100 µM | HOP-62 > 100 µM | OVCAR-4 > 100 µM | SNB-19 > 100 µM | HOP-92 > 100 µM | COLO 205 > 100 µM | SF-295 > 100 µM

O=C(NC(=S)NC(=O)c1cc(O)c(O)c(O)c1)c1cc(O)c(O)c(O)c1
inactive: NCI-H522 22.7 µM | M14 32.1 µM | MCF7 38.7 µM | SN12C 24.7 µM | DU-145 25.5 µM | KM12 24.5 µM | NCI/ADR-RES 23.4 µM | SK-MEL-28 27.8 µM | U-251 27 µM | RXF 393 18 µM | OVCAR-4 20.4 µM | SNB-19 24.2 µM | MOLT-4 > 10 µM | HOP-92 32.7 µM | COLO 205 22.6 µM | SF-295 17.1 µM
